Measured values reported in patent US10219516B2, “Molecules having pesticidal utility, and intermediates, compositions, and processes, related thereto” (priority 2015, dated 2019).

Legend:
Type in all cases: in vivo
[1] = test system: Cabbage Looper (Trichoplusia ni, TRIPNI); assay: Bioassay on Cabbage Looper (CL), 128-well diet tray assay; conditions: Trichoplusia ni; Species CL (Cabbage Looper); read-out: CL (Biological Results, rating)
Procedure, shortened: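 Second-instar larvae, one to five per well, were placed on artificial diet surface-treated with 50 μg/cm^2 test molecule applied in 90:10 acetone-water and dried, eight wells per molecule. Trays were covered, vented and held at 25° C., 14:10 light-dark for five to seven days; percent mortality per well was averaged.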

[2] = test system: Beet Armyworm (Spodoptera exigua, LAPHEG); assay: Bioassay on Beet Armyworm (BAW), 128-well diet tray assay; conditions: Species BAW (Beet Armyworm), read-out: BAW (Biological Results, rating)
Procedure, shortened: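 Artificial diet surface-treated with 50 μg/cm^2 test molecule in 90:10 acetone-water, dried, then infested with one to five second instar larvae per well. Held covered and vented at 25° C., 14:10 light-dark for five to seven days; percent mortality recorded per well and averaged over eight wells.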

[3] = test system: Green Peach Aphid (Myzus persicae, MYZUPE); assay: Bioassay on Green Peach Aphid (GPA), foliar spray on infested cabbage seedlings; conditions: foliar, 72 h, Species GPA (Green Peach Aphid), read-out: GPA (Biological Results, rating)
Description: Certain molecules disclosed in this document were tested against GPA using procedures described in the following example. In the reporting of the results, the “GPA & YFM Rating Table” was used (See Table Section).
Cabbage seedlings grown in 3-inch pots, with 2-3 small (3-5 cm) true leaves, were used as test substrate. The seedlings were infested with 20-50 GPA (wingless adult and nymph stages) one day prior to chemical application. Four pots with individual seedlings were used for each treatment. Test molecules (2 mg) were dissolved in 2 mL of acetone/methanol (1:1) solvent, forming stock solutions of 1000 ppm test molecule. The stock solutions were diluted 5× with 0.025% Tween 20 in water to obtain the solution at 200 ppm test molecule. A hand-held aspirator-type sprayer was used for spraying a solution to both sides of […] leaves until runoff. Reference plants (solvent check) were sprayed with the diluent only containing 20% by volume of acetone/methanol (1:1) solvent. Treated plants were held in a holding room for three days at approximately 25° C. and ambient relative humidity (RH) prior to grading. Evaluation was conducted by counting the number of live aphids per plant under a microscope. Percent control was measured using Abbott's correction formula (W. S. Abbott, “A Method of Computing the Effectiveness of an Insecticide” 3. Econ. Entomol. 18 (1925), pp. 265-267) as follows. Corrected % Control=100*(X−Y)/X where X=No. of live aphids on solvent check plants and Y=No. of live aphids on treated plants. The results are indicated in the table entitled “Table ABC: Biological Results” (See Table Section).

**Q.** What does the source list for `O=C(Nc1ccc(F)cc1Cl)c1cc(NC(=O)[C@H]2[C@H](c3cc(Cl)cc(Cl)c3)C2(Cl)Cl)ccc1Cl` (relative stereo) [F8, trans-2-Chloro-N-(2-chloro-4-fluorophenyl)-5-(2,2-dichloro-3-(3,5-dichlorophenyl)cyclopropane-1-carboxamido)benzamide]?
**A.** pest or weed control at 50 µg/cm2 [1]: 50 to 100%; pest or weed control at 50 µg/cm2 [2]: 50 to 100%; pest or weed control at 200 µg/mL [3]: 80 to 100%

**Q.** How did the pest or weed control at 50 µg/cm2 [1] turn out when `O=C(Nc1ccc(Cl)cc1)c1cc(NC(=O)[C@H]2[C@H](c3cc(Cl)cc(Cl)c3)C2(Cl)Cl)ccc1Cl` (relative stereo) [F7, trans-2-Chloro-N-(4-chlorophenyl)-5-(2,2-dichloro-3-(3,5-dichlorophenyl)cyclopropane-1-carboxamido)benzamide] was run?
**A.** 50 to 100%

**Q.** What about the pest or weed control at 50 µg/cm2 [2] of the same compound?
**A.** 50 to 100%

**Q.** And the pest or weed control at 200 µg/mL [3]?
**A.** 0 to 80%

**Q.** `CNC(=O)c1ccc(NC(=O)c2cc(NC(=O)[C@H]3[C@H](c4cc(Cl)cc(Cl)c4)C3(Cl)Cl)ccc2Cl)cc1` (relative stereo) [F152, trans-2-Chloro-5-(2,2-dichloro-3-(3,5-dichlorophenyl)cyclopropane-1-carboxamido)-N-(4-(methylcarbamoyl)phenyl)benzamide] was tested. Which pest or weed control at 50 µg/cm2 [1] did it give?
**A.** 50 to 100%

**Q.** And the pest or weed control at 50 µg/cm2 [2]?
**A.** 50 to 100%

**Q.** And the pest or weed control at 200 µg/mL [3]?
**A.** 0 to 80%

**Q.** What does the source list for `O=C(Nc1ccc(F)cc1)c1cccc(NC(=O)[C@H]2[C@H](c3cc(Cl)cc(Cl)c3)C2(Cl)Cl)c1Cl` (relative stereo) [F127, trans-2-Chloro-3-(2,2-dichloro-3-(3,5-dichlorophenyl)cyclopropane-1-carboxamido)-N-(4-fluorophenyl)benzamide]?
**A.** pest or weed control at 50 µg/cm2 [1]: 50 to 100%; pest or weed control at 50 µg/cm2 [2]: 50 to 100%; pest or weed control at 200 µg/mL [3]: 0 to 80%

**Q.** How did the pest or weed control at 50 µg/cm2 [1] turn out when `Cc1cc(Cl)cc([C@H]2[C@H](C(=O)Nc3ccc(Cl)c(C(=O)N(C)c4ccc(F)cc4)c3)C2(Cl)Cl)c1` (relative stereo) [F117, trans-2-Chloro-5-(2,2-dichloro-3-(3-chloro-5-methylphenyl)cyclopropane-1-carboxamido)-N-(4-fluorophenyl)-N-methylbenzamide] was run?
**A.** 50 to 100%

**Q.** What about the pest or weed control at 50 µg/cm2 [2] of the same compound?
**A.** 50 to 100%

**Q.** What about the pest or weed control at 200 µg/mL [3] of the same compound?
**A.** 0 to 80%

**Q.** How did the pest or weed control at 50 µg/cm2 [1] turn out when `O=C(Nc1ccc(OC(F)F)cc1)c1cc(NC(=O)[C@H]2[C@H](c3cc(Cl)cc(Cl)c3)C2(Cl)Cl)ccc1Cl` (relative stereo) [F148, trans-2-Chloro-5-(2,2-dichloro-3-(3,5-dichlorophenyl)cyclopropane-1-carboxamido)-N-(4-(difluoromethoxy)phenyl)benzamide] was run?
**A.** 50 to 100%

**Q.** And the pest or weed control at 50 µg/cm2 [2]?
**A.** 50 to 100%

**Q.** What about the pest or weed control at 200 µg/mL [3] of the same compound?
**A.** 0 to 80%

**Q.** What does the source list for `O=C(Nc1ccc(F)cc1)c1cc(NC(=O)[C@H]2[C@H](c3cc(Cl)cc(Cl)c3)C2(Cl)Cl)c(F)cc1F` (relative stereo) [F49, trans-5-(2,2-Dichloro-3-(3,5-dichlorophenyl)cyclopropane-1-carboxamido)-2,4-difluoro-N-(4-fluorophenyl)benzamide]?
**A.** pest or weed control at 50 µg/cm2 [1]: 50 to 100%; pest or weed control at 50 µg/cm2 [2]: 50 to 100%; pest or weed control at 200 µg/mL [3]: 0 to 80%

**Q.** `O=C(Nc1ccc(F)cc1)c1cc(NC(=O)[C@H]2[C@H](c3cc(Cl)c(F)c(Cl)c3)C2(Cl)Cl)ccc1Cl` (relative stereo) [F96, trans-2-Chloro-5-(2,2-dichloro-3-(3,5-dichloro-4-fluorophenyl)cyclopropane-1-carboxamido)-N-(4-fluorophenyl)benzamide] was tested. Which pest or weed control at 50 µg/cm2 [1] did it give?
**A.** 50 to 100%

**Q.** What about the pest or weed control at 50 µg/cm2 [2] of the same compound?
**A.** 50 to 100%

**Q.** What about the pest or weed control at 200 µg/mL [3] of the same compound?
**A.** 80 to 100%

**Q.** Which results are given for `O=C(Nc1ccc(F)cc1)c1cc(NC(=O)[C@H]2[C@H](c3cc(Cl)cc(Cl)c3)C2(Cl)Cl)ccn1` (relative stereo) [F126, trans-4-(2,2-dichloro-3-(3,5-dichlorophenyl)cyclopropane-1-carboxamido)-N-(4-fluorophenyl)picolinamide]?
**A.** pest or weed control at 50 µg/cm2 [1]: 50 to 100%; pest or weed control at 50 µg/cm2 [2]: 50 to 100%; pest or weed control at 200 µg/mL [3]: 0 to 80%

**Q.** What does the source list for `O=C(Nc1ccc(F)cc1)c1cc(NC(=O)[C@H]2[C@H](c3cc(Cl)cc(Cl)c3)C2(Cl)Cl)ccc1Br` (relative stereo) [F11, trans-2-Bromo-5-(2,2-dichloro-3-(3,5-dichlorophenyl)cyclopropane-1-carboxamido)-N-(4-fluorophenyl)benzamide]?
**A.** pest or weed control at 50 µg/cm2 [1]: 50 to 100%; pest or weed control at 50 µg/cm2 [2]: 50 to 100%; pest or weed control at 200 µg/mL [3]: 0 to 80%

**Q.** Which results are given for `CN(C(=O)c1cc(NC(=O)[C@H]2[C@H](c3cc(Cl)cc(Cl)c3)C2(Cl)Cl)ccc1F)c1ccc(F)cc1` (relative stereo) [F45, trans-5-(2,2-Dichloro-3-(3,5-dichlorophenyl)cyclopropane-1-carboxamido)-2-fluoro-N-(4-fluorophenyl)-N-methylbenzamide]?
**A.** pest or weed control at 50 µg/cm2 [1]: 50 to 100%; pest or weed control at 50 µg/cm2 [2]: 50 to 100%; pest or weed control at 200 µg/mL [3]: 0 to 80%

**Q.** Which results are given for `CC(=O)Nc1ccc(NC(=O)c2cc(NC(=O)[C@H]3[C@H](c4cc(Cl)cc(Cl)c4)C3(Cl)Cl)ccc2Cl)cc1` (relative stereo) [F153, trans-N-(4-Acetamidophenyl)-2-chloro-5-(2,2-dichloro-3-(3,5-dichlorophenyl)cyclopropane-1-carboxamido)benzamide]?
**A.** pest or weed control at 50 µg/cm2 [1]: 50 to 100%; pest or weed control at 50 µg/cm2 [2]: 50 to 100%; pest or weed control at 200 µg/mL [3]: 0 to 80%

**Q.** What does the source list for `Cc1ccc(NC(=O)c2cc(NC(=O)[C@H]3[C@H](c4cc(Cl)cc(Cl)c4)C3(Cl)Cl)ccc2Cl)c(F)c1` (relative stereo) [F151, trans-2-Chloro-5-(2,2-dichloro-3-(3,5-dichlorophenyl)cyclopropane-1-carboxamido)-N-(2-fluoro-4-methylphenyl)benzamide]?
**A.** pest or weed control at 50 µg/cm2 [1]: 50 to 100%; pest or weed control at 50 µg/cm2 [2]: 50 to 100%; pest or weed control at 200 µg/mL [3]: 80 to 100%

**Q.** `O=C(Nc1ccc(Cl)c(C(=O)N2CCc3cc(F)ccc32)c1)[C@H]1[C@H](c2cc(Cl)cc(Cl)c2)C1(Cl)Cl` (relative stereo) [F155, trans-2,2-Dichloro-N-(4-chloro-3-(5-fluoroindoline-1-carbonyl)phenyl)-3-(3,5-dichlorophenyl)cyclopropane-1-carboxamide] was tested. Which pest or weed control at 50 µg/cm2 [1] did it give?
**A.** 50 to 100%

**Q.** And the pest or weed control at 50 µg/cm2 [2]?
**A.** 50 to 100%

**Q.** What about the pest or weed control at 200 µg/mL [3] of the same compound?
**A.** 0 to 80%

**Q.** `O=C(Nc1ccc(OC(F)(F)F)cc1)c1cc(NC(=O)[C@H]2[C@H](c3cc(Cl)cc(Cl)c3)C2(Cl)Cl)ccc1Cl` (relative stereo) [F147, trans-2-Chloro-5-(2,2-dichloro-3-(3,5-dichlorophenyl)cyclopropane-1-carboxamido)-N-(4-(trifluoromethoxy)phenyl)benzamide] was tested. Which pest or weed control at 50 µg/cm2 [1] did it give?
**A.** 50 to 100%

**Q.** What about the pest or weed control at 50 µg/cm2 [2] of the same compound?
**A.** 50 to 100%

**Q.** And the pest or weed control at 200 µg/mL [3]?
**A.** 0 to 80%

**Q.** `Cc1cc([C@H]2[C@H](C(=O)Nc3ccc(Cl)c(C(=O)N(C)c4ccc(F)cc4)c3)C2(Cl)Cl)cc(Cl)c1Cl` (relative stereo) [F124, trans-2-Chloro-5-(2,2-dichloro-3-(3,4-dichloro-5-methylphenyl)cyclopropane-1-carboxamido)-N-(4-fluorophenyl)-N-methylbenzamide] was tested. Which pest or weed control at 50 µg/cm2 [1] did it give?
**A.** 50 to 100%

**Q.** What about the pest or weed control at 50 µg/cm2 [2] of the same compound?
**A.** 50 to 100%

**Q.** What about the pest or weed control at 200 µg/mL [3] of the same compound?
**A.** 0 to 80%

**Q.** Which results are given for `COc1ccc(NC(=O)c2cc(NC(=O)[C@H]3[C@H](c4cc(Cl)cc(Cl)c4)C3(Cl)Cl)ccc2Cl)cc1` (relative stereo) [F146, trans-2-chloro-5-(2,2-dichloro-3-(3,5-dichlorophenyl)cyclopropane-1-carboxamido)-N-(4-methoxyphenyl)benzamide]?
**A.** pest or weed control at 50 µg/cm2 [1]: 50 to 100%; pest or weed control at 50 µg/cm2 [2]: 50 to 100%; pest or weed control at 200 µg/mL [3]: 80 to 100%
